The values that follow are results of earlier work, collected in patent publication US6900176B2, “Pest control agents/depsipeptides” (priority 1999, dated 2005).

The data set has as its system silkworms. The conditions noted are these: known from the literature (Kanaoka et al. 1979; JP 05 271 013).

Consider `CC(C)C[C@H]1C(=O)O[C@H](C(C)C)C(=O)N(C)[C@@H](CC(C)C)C(=O)O[C@H](C(C)C)C(=O)N(C)[C@@H](CC(C)C)C(=O)O[C@H](C(C)C)C(=O)N(C)[C@@H](CC(C)C)C(=O)O[C@H](C(C)C)C(=O)N1C` [bassianolide], for which the “insecticidal activity against silkworms” value is “insecticidal activity”.
Regarding `CC(C)C[C@H]1C(=O)O[C@H](Cc2ccccc2)C(=O)N(C)[C@@H](CC(C)C)C(=O)O[C@H](C)C(=O)N(C)[C@@H](CC(C)C)C(=O)O[C@H](Cc2ccccc2)C(=O)N(C)[C@@H](CC(C)C)C(=O)O[C@H](C)C(=O)N1C` [PF1022A], the “insecticidal activity against silkworms” value is recorded as “insecticidal activity”.
